Data reported in patent publication US10188634B2, “3-(3H-imidazo[4,5-C]pyridin-2-yl)-1 H-pyrazolo[4,3-B]pyridines and therapeutic uses thereof” (Samumed, LLC, priority 2015, dated 2019).

Tests used:
[1] = tested on: IL-6 in THP-1 cells; assay: Inhibition of IL-6 in LPS-stimulated THP-1 human monocyte cells (HTRF); type: cell-based; conditions: IL-6 HTRF; for EC50: 500 ng/mL LPS, 22 hours; for inhibition at 10 µM: LPS, read-out: percent inhibition in brackets (given for EC50 >10 μM)
Method in brief: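 THP-1 cells, serum-reduced (1% FBS) for 24 h, were exposed to compound (1:3, 10-point series from 10 μM; 0.1% DMSO) for 2 h, then 500 ng/mL LPS for 22 h at 37° C. Secreted IL-6 measured by HTRF (665/620 ratio), normalised to DMSO; EC50 by four-parameter fit, else % inhibition at 10 μM.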

[2] = tested on: primary human mesenchymal stem cells (hMSCs); assay: Induction of chondrogenesis in primary human mesenchymal stem cells (hMSCs), nodule imaging with Rhodamine B / Nile Red; type: cell-based; conditions: for Emax: hMSCs chondrogenesis, TGF-β3 (10 ng/mL) as positive control, read-out: Max. Activity as % TGF-β3 activity; for EC50: hMSCs, concentration required to induce 50% levels of chondrogenesis vs TGF-β3 positive control, read-out: Conc (nM) of 50% TGF-β3 activity
Method in brief: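 Passage 3-6 hMSCs cultured 6 days at 37° C in incomplete chondrogenic induction medium with compound (2700-10 nM, 96-well; 5000-2.2 nM, 384-well; 0.03% DMSO), TGF-β3 10 ng/mL as positive control. Fixed nodules stained with Rhodamine B/Nile Red, imaged at 531/625 nm; nodule area normalized to DMSO wells for EC50, maximum activity and dose at maximum.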

Row | SMILES | EC50 [1] [nM] | EC50 [2] [nM] | Emax [2] [%] | inhibition at 10 µM [1] [%]
1 | FC1(F)CCN(Cc2cncc(-c3ccc4[nH]nc(-c5nc6c(-c7ccsc7)cncc6[nH]5)c4n3)c2)C1 [Compound 278, 5-(5-((3,3-difluoropyrrolidin-1-yl)methyl)pyridin-3-yl)-3-(7-(thiophen-3-yl)-3H-imidazo[4,5-c]pyridin-2-yl)-1H-pyrazolo[4,3-b]pyridine] | 5790 | 10 | 67 | 
2 | CC(C)Nc1cncc(-c2ccc3[nH]nc(-c4nc5c(-c6ccoc6)cncc5[nH]4)c3n2)c1 [Compound 292, 5-(3-(7-(Furan-3-yl)-3H-imidazo[4,5-c]pyridin-2-yl)-1H-pyrazolo[4,3-b]pyridin-5-yl)-N-isopropylpyridin-3-amine] | 2560 | 30 | 75 | 
3 | CN(C)c1cncc(-c2ccc3[nH]nc(-c4nc5c(-c6cccs6)cncc5[nH]4)c3n2)c1 [Compound 315, N,N-Dimethyl-5-(3-(7-(thiophen-2-yl)-3H-imidazo[4,5-c]pyridin-2-yl)-1H-pyrazolo[4,3-b]pyridin-5-yl)pyridin-3-amine] | 31 | 10 | 66 | 
4 | Cc1ccc(-c2cncc3[nH]c(-c4n[nH]c5ccc(-c6cncc(N)c6)nc45)nc23)s1 [Compound 367, 5-(3-(7-(5-Methylthiophen-2-yl)-3H-imidazo[4,5-c]pyridin-2-yl)-1H-pyrazolo[4,3-b]pyridin-5-yl)pyridin-3-amine] | 125 | 30 | 79 | 
5 | CC(C)Nc1cncc(-c2ccc3[nH]nc(-c4nc5c(-c6cc(F)cc(NCCN(C)C)c6)cncc5[nH]4)c3n2)c1 [Compound 432, N^1-(3-Fluoro-5-(2-(5-(5-(isopropylamino)pyridin-3-yl)-1H-pyrazolo[4,3-b]pyridin-3-yl)-3H-imidazo[4,5-c]pyridin-7-yl)phenyl)-N^2,N^2-dimethylethane-1,2-diamine] | 2290 | 300 | 97 | 

The next lines start with results.

Row | EC50 [1] [nM] | EC50 [2] [nM] | SMILES | Emax [2] [%] | inhibition at 10 µM [1] [%]
6 | > 10000 |  | Cc1ccncc1-c1ccc2[nH]nc(-c3nc4c(-c5cc(F)cc(CNS(C)(=O)=O)c5)cncc4[nH]3)c2n1 [Compound 453, N-(3-Fluoro-5-(2-(5-(4-methylpyridin-3-yl)-1H-pyrazolo[4,3-b]pyridin-3-yl)-3H-imidazo[4,5-c]pyridin-7-yl)benzyl)methanesulfonamide] | 35 | 23.9
7 | > 10000 | 2 | CN(C)CCOc1cncc(-c2ccc3[nH]nc(-c4nc5c(-c6cccc(F)c6)cncc5[nH]4)c3n2)c1 [Compound 487, 2-((5-(3-(7-(3-Fluorophenyl)-3H-imidazo[4,5-c]pyridin-2-yl)-1H-pyrazolo[4,3-b]pyridin-5-yl)pyridin-3-yl)oxy)-N,N-dimethylethan-1-amine] | 55 | 33.4
8 | > 10000 | 21 | COc1cncc(-c2ccc3[nH]nc(-c4nc5c(-c6cccc(F)c6)cncc5[nH]4)c3n2)c1 [Compound 488, 3-(7-(3-Fluorophenyl)-3H-imidazo[4,5-c]pyridin-2-yl)-5-(5-methoxylpyridin-3-yl)-1H-pyrazolo[4,3-b]pyridine] | 56 | 43
9 | > 10000 | 10 | CC(C)CC(=O)Nc1cncc(-c2ccc3[nH]nc(-c4nc5c(-c6ccc(Cl)s6)cncc5[nH]4)c3n2)c1 [Compound 992, N-(5-(3-(7-(5-Chlorothiophen-2-yl)-3H-imidazo[4,5-c]pyridin-2-yl)-1H-pyrazolo[4,3-b]pyridin-5-yl)pyridin-3-yl)-3-methylbutanamide] | 61 | 29.8
10 | > 10000 | 10 | CC(C)(C)C(=O)Nc1cncc(-c2ccc3[nH]nc(-c4nc5c(-c6ccc(Cl)s6)cncc5[nH]4)c3n2)c1 [Compound 998, N-(5-(3-(7-(5-Chlorothiophen-2-yl)-3H-imidazo[4,5-c]pyridin-2-yl)-1H-pyrazolo[4,3-b]pyridin-5-yl)pyridin-3-yl)pivalamide] | 85 | 43
11 | > 10000 | 10 | Clc1ccc(-c2cncc3[nH]c(-c4n[nH]c5ccc(-c6cncc(CN7CCCC7)c6)nc45)nc23)s1 [Compound 1004, 3-(7-(5-Chlorothiophen-2-yl)-3H-imidazo[4,5-c]pyridin-2-yl)-5-(5-(pyrrolidin-1-ylmethyl)pyridin-3-yl)-1H-pyrazolo[4,3-b]pyridine] | 62 | 29.8
12 | > 10000 | 30 | O=C(Nc1cncc(-c2ccc3[nH]nc(-c4nc5c(-c6ccc(Cl)s6)cncc5[nH]4)c3n2)c1)C1CCC1 [Compound 1011, N-(5-(3-(7-(5-Chlorothiophen-2-yl)-3H-imidazo[4,5-c]pyridin-2-yl)-1H-pyrazolo[4,3-b]pyridin-5-yl)pyridin-3-yl)cyclobutanecarboxamide] | 68 | 32.4
